This is an account of results in ChEMBL document CHEMBL1130298, “Class III antiarrhythmic activity in vivo by selective blockade of the slowly activating cardiac delayed rectifier potassium current IKs by (R)-2-(2,4-trifluoromethyl)-N-[2-oxo-5-phenyl-1-(2,2,2-trifluoroethyl)- 2, 3-dihydro-1H-benzo[e][1,4]diazepin-3-yl]acetamide” (J Med Chem, 1997).

Data set [1] can be described thus: Inhibition of Iks current in isolated guinea pig myocytes during a 1s voltage clamp step from -50 to +50 mV. It counts as functional, cell-based. To be noted: Cavia porcellus.
Data set [2] addresses T1, IKr current (KCNH2 potassium channel) (Homo sapiens, UniProt Q12809). As to the kind of experiment: Inhibition of Ikr current in isolated guinea pig myocytes during a 0.5 s voltage clamp step from -50 to -10 mV at 1000 nM. It counts as functional, cell-based, Cavia porcellus. To be noted: target entry is the homologue from another species.
Data set [3] concerns the target T1, IKr current (KCNH2 potassium channel). As to the kind of experiment: Inhibition of Ikr current in isolated guinea pig myocytes during a 0.5 s voltage clamp step from -50 to -10 mV at 100 nM. As to conditions: target entry is the homologue from another species. The class given is functional, cell-based, Cavia porcellus.
For data set [4], the target named is Voltage-gated inwardly rectifying potassium channel KCNH2 (Homo sapiens, UniProt Q12809). As to the kind of experiment: Inhibition of Ikr current in isolated guinea pig myocytes during a 0.5 s voltage clamp step from -50 to -10 mV. To be noted: target entry is the homologue from another species. It counts as functional, cell-based, Cavia porcellus.
Voltage-gated inwardly rectifying potassium channel KCNH2, sequence (Q12809 whole entry): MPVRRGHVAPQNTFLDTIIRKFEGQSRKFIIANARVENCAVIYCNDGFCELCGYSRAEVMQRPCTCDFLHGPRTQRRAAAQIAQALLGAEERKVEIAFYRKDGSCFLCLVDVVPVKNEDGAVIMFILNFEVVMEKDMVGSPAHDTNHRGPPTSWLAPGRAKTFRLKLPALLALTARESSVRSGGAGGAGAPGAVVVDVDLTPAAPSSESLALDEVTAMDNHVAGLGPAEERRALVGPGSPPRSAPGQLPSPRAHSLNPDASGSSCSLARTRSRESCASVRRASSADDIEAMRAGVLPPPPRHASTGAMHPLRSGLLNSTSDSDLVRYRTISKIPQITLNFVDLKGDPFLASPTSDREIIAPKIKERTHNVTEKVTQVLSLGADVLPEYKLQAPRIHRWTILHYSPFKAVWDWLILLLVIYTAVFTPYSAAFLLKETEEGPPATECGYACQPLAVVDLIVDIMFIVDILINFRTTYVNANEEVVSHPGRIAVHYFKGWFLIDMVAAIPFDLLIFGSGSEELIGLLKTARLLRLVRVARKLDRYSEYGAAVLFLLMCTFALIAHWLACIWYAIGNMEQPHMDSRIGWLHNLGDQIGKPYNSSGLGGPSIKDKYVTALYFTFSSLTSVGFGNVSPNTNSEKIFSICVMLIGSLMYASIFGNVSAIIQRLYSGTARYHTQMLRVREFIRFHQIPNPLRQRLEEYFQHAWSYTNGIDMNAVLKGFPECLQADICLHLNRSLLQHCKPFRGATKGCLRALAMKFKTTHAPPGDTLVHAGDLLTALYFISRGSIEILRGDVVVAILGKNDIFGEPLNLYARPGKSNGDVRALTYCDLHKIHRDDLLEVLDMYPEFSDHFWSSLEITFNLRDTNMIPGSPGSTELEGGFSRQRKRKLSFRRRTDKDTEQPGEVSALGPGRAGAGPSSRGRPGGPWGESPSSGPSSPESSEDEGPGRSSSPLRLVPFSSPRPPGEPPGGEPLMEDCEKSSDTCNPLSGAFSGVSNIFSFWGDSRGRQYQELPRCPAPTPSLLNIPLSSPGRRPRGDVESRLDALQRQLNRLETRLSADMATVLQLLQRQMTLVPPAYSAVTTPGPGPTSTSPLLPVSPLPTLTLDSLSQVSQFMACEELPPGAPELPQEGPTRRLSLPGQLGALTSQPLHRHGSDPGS

T1 sequence (Q12809 whole entry): as above

Broadly, the IC50 is the point on the concentration scale where inhibition reaches its midpoint. Higher therefore signals lower potency. Consider `CN1C(=O)[C@H](NC(=O)Cc2ccc(C(F)(F)F)cc2C(F)(F)F)N=C(c2ccccc2)c2ccccc21`, for which 140 nM corresponded to half-maximal inhibition in data set [1] (IC50).

As usually defined, the inhibition is the change of the read-out against control, counted positive when it falls. Low values mean little suppression, high ones strong suppression. The compound `CN1C(=O)[C@H](NC(=O)Cc2ccccc2)N=C(c2ccccc2)c2ccccc21` registered an IC50 in data set [1] of 300 nM. The inhibition at 1 µM in data set [2] was 31%.

As to `CN1C(=O)[C@H](NC(=O)CCc2ccccc2)N=C(c2ccccc2)c2ccccc21`, the IC50 in data set [1] came out at 200 nM. In addition, the inhibition at 1 µM in data set [2] was 32%.

`CC(C)N1C(=O)[C@H](NC(=O)CCC2CCCCC2)N=C(c2ccccc2)c2ccccc21` showed an IC50 in data set [1] of 20 nM.

`CC(C)N1C(=O)[C@H](NC(=O)c2cc(Cl)cc(Cl)c2)N=C(c2ccccc2)c2ccccc21`: in data set [1], the midpoint of inhibition, the IC50, lay at 6 nM.

Regarding `CN1C(=O)[C@H](NC(=O)c2cc(Cl)cc(Cl)c2)N=C(c2ccccc2)c2ccccc21`, in data set [1], inhibition was half-maximal at 45 nM (IC50). The inhibition at 1 µM in data set [2] came out at 17%.

Compound `O=C(N[C@@H]1N=C(c2ccccc2)c2ccccc2N(CC(F)(F)F)C1=O)c1cc(Cl)cc(Cl)c1` registered an IC50 in data set [1] of 11 nM. Further, in data set [3], the inhibition at 0.1 µM was determined as 25%.

Compound `O=C(Cc1ccc(Cl)cc1Cl)N[C@@H]1N=C(c2ccccc2)c2ccccc2N(CC(F)(F)F)C1=O` displayed an IC50 in data set [1] of 9 nM.

Turning to `CN(C)CCN1C(=O)C(NC(=O)CCc2ccc(Cl)cc2Cl)N=C(c2ccccc2)c2ccccc21` (stereo not drawn), half-maximal inhibition in data set [4] (IC50) required 100 nM.

In turn, `CN1C(=O)[C@H](NC(=O)c2ccccc2)N=C(c2ccccc2)c2ccccc21` came in with an IC50 in data set [1] of 600 nM. Besides, the inhibition at 1 µM in data set [2] stood at 23%.

The compound `CC(C)N1C(=O)[C@@H](NC(=O)c2cc(Cl)cc(Cl)c2)N=C(c2ccccc2)c2ccccc21` showed an inhibition at 1 µM in data set [2] of 6%.

On to `CN1C(=O)[C@H](NC(=O)/C=C/c2ccc(Cl)cc2Cl)N=C(c2ccccc2)c2ccccc21`, for which half-maximal inhibition in data set [1] (IC50) was put at 6 nM.

With `CN1C(=O)[C@H](NC(=O)C(N)Cc2ccccc2)N=C(c2ccccc2)c2ccccc21` (stereo partly drawn), half-maximal inhibition in data set [1] (IC50) required 2800 nM.

Regarding `CC(=O)Nc1ccc(CCC(=O)N[C@@H]2N=C(c3ccccc3)c3ccccc3N(C)C2=O)cc1`, the IC50 in data set [1] was more than 10000 nM.

With `O=C(Cc1cc(Cl)cc(Cl)c1)N[C@@H]1N=C(c2ccccc2)c2ccccc2N(CC(F)(F)F)C1=O`, the IC50 in data set [4] amounted to 4000 nM; in data set [1], 30 nM.

For `CN1C(=O)[C@H](NC(=O)CCC2CCCCC2)N=C(c2ccccc2)c2ccccc21`, the results for the IC50 in data set [4] and in data set [1] were 1000 nM and 10 nM, respectively.

With `O=C(Cc1ccc(C(F)(F)F)cc1C(F)(F)F)N[C@H]1N=C(c2ccccc2)c2ccccc2N(CC(F)(F)F)C1=O`, in data set [2], the inhibition at 1 µM turned out to be 35%.

`CC(C)N1C(=O)[C@H](NC(=O)Cc2cc(Cl)cc(Cl)c2)N=C(c2ccccc2)c2ccccc21` yielded an IC50 in data set [1] of 10 nM.

Take `CN1C(=O)[C@H](NC(=O)CCc2ccc(Cl)cc2Cl)N=C(c2ccccc2)c2ccccc21`: in data set [2], testing at 1 µM gave an inhibition of 31%.

For `Cc1cccc(NC(=O)N[C@@H]2N=C(c3ccccc3)c3ccccc3N(C)C2=O)c1` [L-365260], in data set [1], half-maximal inhibition (IC50) was put at 214 nM.

`O=C(Cc1ccc(C(F)(F)F)cc1C(F)(F)F)N[C@@H]1N=C(c2ccccc2)c2ccccc2N(CC(F)(F)F)C1=O` [L-768673] showed an IC50 in data set [1] of 6 nM.
